Experimental data as given in patent US9757477B2, “Imaging brown adipose tissue with curcumin derivatives” (The General Hospital Corporation, priority 2013, dated 2017).
Where “and” joins values, the source holds several entries; their conditions need not be identical. Equal values may be shown once.

How the values were obtained:
inguinal sWAT = assay: Monitoring browning of subcutaneous WAT after CL 316,243 treatment; format: in vivo, C57BL6 mice; conditions: CL 316,243 1.0 mg/kg i.p. for 12 days
Experimental: (§1) Two-month old C57BL6 mice (n=5) were i.p. injected CL 316,243 (100 uL, 1.0 mg/kg) for 12 days, and the control mice (n=5) were i.p. injected with saline. On the 13th day, both groups were imaged after i.v. injection of CRANAD-29. Images were acquired at 1-, 2-, 4-hours after the probe injection. After the last imaging session, inguinal sWAT were dissected after scarification of the mice, and the dissected sWAT tissue was subjected to qPCR for UCP-1 expression and H&E staining

UCP-1 = assay: qPCR for UCP-1 expression in dissected sWAT; format: in vivo, C57BL6 mice; conditions: CL 316,243 1.0 mg/kg i.p. for 12 days
Experimental: as §1

interscapular BAT [1] = assay: Top-down whole-organism NIR fluorescence screening of dyes (ROI1/ROI2 contrast); format: in vivo, nude mice; conditions: for Ratio No 1 (ROI1/ROI2 average fluorescence intensity) / Ratio No 2 (ROI1/ROI2 average fluorescence intensity) / Ratio No 3 (ROI1/ROI2 average fluorescence intensity) / Ratio AVERAGE (mean ratio ROI1/ROI2): nude mice, one hour post-injection; for Ratio No 1 (ROI1/ROI2 average fluorescence intensity) / Ratio No 2 (ROI1/ROI2 average fluorescence intensity) / Ratio No 3 (ROI1/ROI2 average fluorescence intensity): 10 μg/mouse i.v.; for Ratio No 1 (ROI1/ROI2 average fluorescence intensity): first excitation/emission filter pair; for Ratio No 2 (ROI1/ROI2 average fluorescence intensity): second excitation/emission filter pair; for Ratio No 3 (ROI1/ROI2 average fluorescence intensity): third excitation/emission filter pair; for Ratio AVERAGE (mean ratio ROI1/ROI2): i.v., mean of three filter pairs, hit threshold >1.10
Experimental: 38 fluorescent dyes from commercial resources and from the inventors' laboratory were screened. Dyes with excitation range of 550-745 nm, emission range of 600-840 nm, and with molecular weight of less than 700 Da (except Cy5.5) (representative dyes are listed in FIG. 1d and the full list is shown in Table 2). Their hydrophobicities were not determined. The library was screened by intravenous tail injection of compounds into nude mice (10μg/mouse). Each dye was imaged with three optimized excitation/emission filter-pairs, and images at one hour after i.v. injection were acquired.
Top-down whole organism screening was performed as follows. Nude mice (nu/nu COX7) were purchased from Massachusetts General Hospital and Balb/c mice were from Jackson Laboratory. All animal experimental procedures were approved by the Institutional Animal Care and Use Committee (IACUC) at Massachusetts General Hospital. Dye stock solutions were prepared in DMSO. The final injection solution (0.1 mg/ml) was freshly prepared in a mixed solution of 20% DMSO, 20% Cremophor EL and 60% saline. Nude mice (n=5) were injected with a 100 μL dye solution via tail vein. For each imaging session, mice were anesthetized with a mixture of oxygen and isoflurane for 5 minutes, and then positioned into the imaging chamber of IVIS® Spectrum in vivo pre-clinical imaging system. Images were acquired at one-hour post-injection using sequence imaging with three excitation/emission filter pairs for each dye.
Hits selection was performed as follows. Hits from cell- or protein-based screening are usually selected by setting certain threshold. In the case of the top-down imaging screening, two methods were used (threshold and visible contrast) to select hits. First, three images obtained with three excitation/emission pairs were selected for each dye. These ex/em pairs were selected from the closest excitation and emission wavelengths of the tested dyes. For instance, 605/660 nm, 605/680 nm, 640/680 nm were selected for image acquisition of Nile blue (625/660 nm). The quantification of contrast for each image was calculated as a ratio of two ROIs (region of interest). ROI1 reflected the average signal from interscapular BAT and ROI2 was the average signal of the area that included BAT and white adipose tissue (WAT) around the interscapular site (FIG. 1b, left). The averaged fluorescent signal of ROI was used instead of the total signal, because the total signal depends on the area of ROI, whereas the averaged signal reflects the density of signal. The ratio of ROI1/ROI2 could reflect the signal/noise ratio of the tested probe, and could also reflect the selectivity of the probe for BAT over WAT. For each dye, three ROI1/ROI2 ratios obtained with the three filter pairs were calculated. The mean of the ratios was used as the threshold. If the mean ratio was >1.10, the dye was selected as a potential positive hit (FIG. 1c). Since the contrast of a dye in the top-down screening is in the visible range, the visible contrast around the interscapular BAT area was also tested for the hits with the mean ratio of >1.10. If both mean ratio and the visible contrast were positive, then the hit was subjected to re-testing procedure to validate its reliability as described below.
Although CRANAD-2 and CRANAD-3 were able to provide certain contrast for BAT in vivo, their excitation and emission wavelengths were still shorter than required for an ideal NIR imaging probe (both excitation and emission >640 nm). […] To seek better probes, a sub-library was synthesized based on the structures of the lead probes CRANAD-2 and -3. CRANAD-6, -19, -22, -24, -26, -32 and -43 were synthesized and tested (images and chemical structures, excitation and emission spectra are shown in FIG. 9 a-e). […] However, the ROI1/ROI2 ratio of CRANAD-22 was not improved (FIG. 9c).

interscapular BAT [2] = assay: Re-testing of hits with stepwise dissection and NIR imaging; format: in vivo, mice
Experimental: Like protein/cell-based screening, hit re-testing experiments were conducted to validate the reliability of this approach. CRANAD-2, -3, LDS 722 and Rhodamine 640 were subjected to re-testing by repeating the above imaging procedure. Images were acquired one hour after probe injection.
Next, stepwise dissection and imaging were performed to track the source of the fluorescence contrast at the interscapular site. Skin and the thin WAT layer that covers BAT were first removed, and then BAT was dissected, and NIR images were captured at each step. […] The signal contribution from BAT (R(BAT)) was roughly estimated using the ratio of fluorescence signals acquired after (F(BAT)) and before (F(intact)) the first step dissection of skin and WAT.

interscapular BAT [3] = assay: Time course and dose optimization of probe signal in BAT area after i.v. injection; format: in vivo, mice; conditions: mouse, in vivo, iv
Experimental: (§2) Next the time course of CRANAD-2 and CRANAD-3 accumulation in BAT area was investigated. […] Similarly, the signal of CRANAD-3 reached the uptake peak around one hour, and then gradually washed out (FIG. 8c-d). Accumulation of CRANAD-2 and -3 in BAT was further confirmed with ex vivo histology of the dissected BAT slices, performed as follows. The dissected BAT was fixed with 4% formalin at 4° C. overnight, and then embedded into OCT. BAT tissue was cut into 7 micron thickness slices, washed with PBS buffer, and co-stained with DAPI (Vectra Shield, Vector Lab, Burlingame, Calif.). Images were acquired with fast exposure to capture the dye signal in the oil droplets. To outline cell membrane cell autofluorescence was captured with long exposure after image of the dye signal from oil droplets was already acquired. To further validate the capacity of CRANAD-29 for BAT labeling, ex vivo histological microscopic imaging with CRANAD-29 was conducted. […] Gold standard H&E staining also provided similar images (FIG. 10a). […] The injection dose of CRANAD-29 was optimized, and the fluorescence signal reached its plateau at 0.4 mg/kg (FIG. 11). In the following studies, 0.1 mg/kg dose was used.

brown adipose cells = assay: Ex vivo histology of dissected BAT slices; parameters: species or system mice; conditions: fluorescence microscopy
Experimental: as §2

[4] = system: BAT cells induced from wild-type brown preadipocytes; assay: In vitro staining of BMPs-induced BAT cells (live cell confocal); format: cell-based; conditions: live cell confocal images
[5] = Excitation and emission wavelengths of BAT imaging agents; format: physicochemical
Experimental: In some embodiments, the methods include irradiating the mammal with light of the appropriate wavelength to excite the BAT imaging agent, and detecting emissions therefrom.
Fluorescent dyes were purchased from Exciton Inc. (Dayton, Ohio) and Invitrogen. The reagents used for the synthesis were purchased from Aldrich and used without further purification. Column chromatography was performed on silica gel (SiliCycle Inc., 60 Å, […]) slurry packed into glass columns. 1H, 13C NMR spectra were recorded at 500 MHz and 125 MHz respectively, and reported in ppm downfield from tetramethylsilane. Fluorescence studies were carried out using a F-4500 Fluorescence Spectrophotometer (Hitachi). Mass spectra were obtained at Harvard University, Department of Chemistry Instrumentation Facility. Microscopic images were acquired with Nikon Eclipse 50i microscope. In vivo NIR imaging was performed using the IVIS® Spectrum animal imaging system (Caliper LifeSciences, Perkin Elmer, Hopkinton, Mass.), and data analysis was conducted using LivingImage® 4.2.1 software.

interscapular BAT [6] = assay: PET imaging with 18F-labeled curcumin analogue; format: in vivo, mice; conditions: 100-180 μCi tail vein
Experimental: PET imaging was conducted with a microPET P4 system (Concorde Microsystems Incorporated, Knoxville, Tenn., USA). The imaging parameters of this system are in-plane and axial resolution of 1.2 mm full width at half maximal count. Prior to PET imaging, mice were anesthetized with isoflurane/O2, and then fixed to the imaging table with a custom-fabricated mold. Injection catheter was placed in tail vein for administration of the radiotracer. Subsequently, CRANAD-5F^18 (100-180 μCi) was injected into the tail vein and volumetric dynamic data were acquired in list-mode format for 120 min. Imaging data were corrected for uniformity, attenuation, decay, and acquisition time. PET images were reconstructed using filtered back projection with a Ramp filter (cutoff value of 0.5). The software, ASIPro 6.0, was provided by the microPET manufacturer.

[7] = system: undifferentiated 3T3-L1 cells; assay: Probe uptake in undifferentiated 3T3-L1 cells (IVIS imaging); format: cell-based
Experimental: (§3) To investigate the facilitated diffusion of CRANAD-2, the time courses of CRANAD-2 uptake in 3T3-L1 cells were compared before and after differentiation. Two-photon imaging for 3T3-L1 cells was performed as follows. Fibroblast 3T3-L1 cells were differentiated following the protocol provided by Zenbio, Inc. (protocol No. ZBM0009.02). Ten microliters of CRANAD-2 (250 μM in DMSO) was added to the differentiated cells (1.0 ml). Cells were imaged after 10 min of incubation. A 940 nm laser was first used to capture an image for CRANAD-2 in 570-620 nm channel (Prairie Two-photon microscope, Middleton, Wis.). Next, the laser was tuned to 750 nm to capture autofluorescence of the cells to outline cell morphology.
(§4) IVIS imaging of 3T3-L1 cells with CRANAD-2 was performed as follows. To a 6-well plate seeded with preadipocytes or differentiated adipocytes, a 10 μL solution of CRANAD-2 (250 μM in DMSO) was added. The plate was subjected to imaging using IVIS imaging system with Ex=605 nm, Em=660 nm before and after addition of CRANAD-2. For triglyceride competition, the same protocol for two-photon imaging was used. The images were acquired at 20 min after addition of CRANAD-2. Studies were performed in triplicate.
(§5) The uptake of CRANAD-29 in 3T3-L1 cells before and after differentiation was compared. IVIS imaging of 3T3-L1 cells with CRANAD-29 was performed as follows. To a 6-well plate seeded with preadipocytes or differentiated adipocytes, a 10 μL solution of CRANAD-29 (250 μM in DMSO) was added. The plate was subjected to imaging using IVIS imaging system with Ex=640 nm, Em=700 nm before and after addition of CRANAD-29. For triglyceride competition and Hexarelin inhibition, the similar protocol for CRANAD-2 imaging was used. The final concentration of hexarelin was 12.5 μM, and the images were acquired at 3 hours after addition of CRANAD-29 and triglyceride/Hexarelin. Studies were performed in triplicate.

[8] = system: differentiated 3T3-L1 cells; assay: Probe uptake in differentiated 3T3-L1 cells (IVIS and two-photon imaging, competition); format: cell-based
Experimental: as §3
For triglyceride competition, stock solutions of CRANAD-2 (250 μM) and triglyceride (5 mM) in DMSO were prepared. Before imaging, 10 μl of the stock solution was added to the cells.
as §4, §5

C[C@H](Cc1ccc2c(c1)OC(C(=O)[O-])(C(=O)[O-])O2)NC[C@H](O)c1cccc(Cl)c1.[Na+].[Na+] [CL 316,243]
H&E staining of sWAT slice of treated mice (inguinal sWAT): cells with multilocular lipid droplets | UCP-1 mRNA level in sWAT, treated mice vs control group (UCP-1): 7.9 fold

CCN(CC)c1ccc(/C=C/C2=CC(/C=C/c3ccc(N(CC)CC)nc3)=[O+][B-](F)(F)O2)cn1 [CRANAD-3]
visible contrast around the interscapular BAT area (interscapular BAT [1]; in vivo NIR images): best contrast and clear triangular contour | Ratio No 1 (ROI1/ROI2 average fluorescence intensity) (interscapular BAT [1]): 1.34E+00 | Ratio No 2 (ROI1/ROI2 average fluorescence intensity) (interscapular BAT [1]): 1.33E+00 | Ratio No 3 (ROI1/ROI2 average fluorescence intensity) (interscapular BAT [1]): 1.31E+00 | Ratio AVERAGE (mean ratio ROI1/ROI2) (interscapular BAT [1]): 1.32 and 1.32E+00 | R(BAT), signal contribution from BAT, F(BAT)/F(intact) (interscapular BAT [2]; fluorescence after vs before dissection of skin and WAT, roughly estimated): 0.51 | contrast among the re-tested dyes (interscapular BAT [2]; images one hour after probe injection): highest contrast | fluorescence signal from BAT (before vs after BAT removal) (interscapular BAT [2]; stepwise dissection): able to label BAT | selectivity for BAT (over WAT) (interscapular BAT [2]; stepwise dissection): low | time of uptake peak in BAT area (interscapular BAT [3]): around one | labeling in ex vivo histology of BAT slices (brown adipose cells): labeled oil droplets in brown adipose cells | staining of oil droplets in BAT cells [4]: able to clearly label oil droplets in BAT cells | Emission λ [5]: 660 nm | Excitation λ [5]: 570 nm

CN(C)c1ccc(C=CC(O)=CC(=O)C=Cc2ccc(N(C)CC[18F])cc2)cc1 [CRANAD-5F]
in vivo PET imaging of BAT (interscapular BAT [6]): clearly highlighted BAT at the interscapular site

CC[N+](CC)=c1ccc2nc3c(cc(N)c4ccccc43)oc-2c1 [Nile Blue]
Ratio No 1 (ROI1/ROI2 average fluorescence intensity) (interscapular BAT [1]): 1.00E+00 | Ratio No 2 (ROI1/ROI2 average fluorescence intensity) (interscapular BAT [1]): 9.89E−01 | Ratio No 3 (ROI1/ROI2 average fluorescence intensity) (interscapular BAT [1]): 9.62E−01 | Ratio AVERAGE (mean ratio ROI1/ROI2) (interscapular BAT [1]): 9.84E−01 | uptake in undifferentiated cells over the time course [7]: rapidly reached the plateau | uptake in differentiated cells over the time course ([8]; differentiated 3T3-L1 cells): rapidly reached the plateau | uptake with triglyceride competition ([8]; triglyceride added with probe, two-photon microscopy and IVIS): no significant decrease in uptake
